# Results: patent US20030166139A1 (priority 2001, published 2003)
# System: EDIM rotavirus
# Set-up: species or system mice
# Conditions: mouse, in vivo
Substance,% Protection [%],% Protection from rotavirus shedding [%]
CAINAPANIQQFEHIVQLRRVLTTA [compound 1],0,
FNPVILRPNNVEVEFLLNGQVINTYQARF [compound 4],77,
FSFPRVINSADGATTWYFNPVILRPNNVEV [compound 3],58,
HATVLTLRIDSAICESVLADASETMLANV [compound 8],51,
MTPAVTALFPNAQPFEHHATVGLTLRIDSA [compound 7],0,
NGQVINTYQARFGTIVARNFDTIRLSFQLM [compound 5],0,
PDAERFSFPRVINSADGA [compound 2],70,
QEYAIPVGPVFPPGMNWTDLITNYSPSRED [compound 10],0,
QS-21 [reference compound],,43
RLSFQLMRPPNMTP [Peptide #6-14],98,
RNFDTIRLSFQLMRPPNMTPAVTAL [Peptide #6],85,
TDLITNYSPSREDNLQRVFTVASIRSMLVK [compound 11],65,
VLADASETMLANVTSVRQEYAI [compound 9],0,

# Same assay, conditions: mouse, in vivo, po
row,Substance,% Protection from rotavirus shedding [%]
1,QS-21 [reference compound],71

# System: not given
# Conditions: in vivo; cited from earlier work
row,Substance,safety in human clinical trials
1,QS-21 [reference compound],safe
